{"source": "patent US3932619A", "about": "“Metabolite A-27106 and processes for its preparation and use” (Eli Lilly and Company, priority 1974, dated 1976)", "key": {"mice": {"system": "mice", "test": "Acute intraperitoneal toxicity in groups of six mice", "assay_type": "in vivo", "conditions": "for mice died: six mice", "description": "In tests when metabolite A-27106 sodium salt was administered intraperitoneally to groups of six mice each:\nIn similar tests, when monensin sodium salt was administered intraperitoneally to groups of six mice each: […]"}, "[1]": {"test": "Electrometric titration (pKa)", "assay_type": "physicochemical", "conditions": "pH 8; electrometric titration in water, initial pH of 8", "from_the_text": "The acid form of metabolite A-27106 is a white amorphous solid, having a molecular weight of about 832."}, "Eimeria tenella": {"system": "Eimeria tenella", "test": "Control of coccidiosis in chicks inoculated with Eimeria tenella, drug in feed", "assay_type": "in vivo", "conditions": "for Avg. Wt. Gain/Bird: 7 days after inoculation; for Lesion Scores: number of birds at score 0 / Lesion Scores: number of birds at score 1 / Lesion Scores: number of birds at score 2 / Lesion Scores: number of birds at score 3 / Lesion Scores: number of birds at score 4: of 15 birds", "description": "A group of 75 one-week-old, healthy, incubator and battery-reared, cross-bred male chicks, of a heavy broiler type was used. The birds were divided into five groups of 15 birds having three replicates of five-bird subgroups each. Each subgroup was reared out of contact with the other subgroups. A first group was held as an untreated healthy control under favorable conditions. A second group was treated as the first group, but was inoculated with coccidiosis by oral administration of a dose containing 10^5 sporulated oocysts of Eimeria tenella. The third, fourth and fifth groups were treated as the second group except that, 24 hours before the said inoculation, their feed was modified by addition of metabolite A-27106 sodium salt in concentrations of 100, 150, and 200 parts per million (ppm), respectively.\nSeven days after inoculation, the birds were weighed, sacrificed and examined for evidence of coccidial lesions. Coccidial involvement was expressed on an arbitrary scale of zero to four. Lesion scores indicate the number of birds at each level. Zero indicates no evidence of coccidiosis. One designates the least coccidial involvement that can be seen. Two indicates moderate involvement with little or no hemorrhage and no severe tissue damage. Three indicates hemorrhage, swelling of the caeca, and extensive tissue involvement. Four indicates hemorrhage, a caecal core of clotted blood and debrided epithelial cells. Birds scoring […] or less usually recover if not further infected with coccidia."}, "rumen fluid": {"system": "rumen fluid", "test": "Volatile fatty acid production in incubated diluted rumen fluid", "set-up": "species or system steer", "conditions": "16 hours, 38°C.", "from_the_text": "Rumen fluid is obtained from a steer with a surgically-installed fistula opening into the rumen. The steer is maintained on a high-grain ration, the composition of which follows:\nA sample of rumen fluid is strained through four layers of cheesecloth, and the filtrate is collected. The particulate matter retained by the cheesecloth is resuspended in enough physiological buffer to return it to the original volume of the rumen fluid, and this suspension is strained again. The buffer used has the following composition:\nThe two filtrates are combined and allowed to stand until particulate matter separates to the top. The clear layer is separated, diluted with the same buffer (1:1) and then adjusted to pH 7.0.\nThe diluted rumen fluid (10 ml.) is placed in a 25-ml. flask with 40 mg. of the above-described feed, an additional 5 mg. of soybean protein, and the compound to be tested. Four replicate flasks are used per treatment. Two sets of four control flasks each are also employed. A zero-time control and an incubated 16-hour control are used. All test flasks are incubated for 16 hours at 38°C. After incubation the pH is measured, and 25 percent metaphosphoric acid (2 ml.) is added to each flask. The samples are allowed to settle, and the supernatant is analyzed by gas chromatography for propionate, acetate, and butyrate compounds.\nTest-compound results are statistically compared with the control results."}, "[2]": {"test": "Solubility in organic solvents", "assay_type": "physicochemical"}, "birds": {"system": "birds", "test": "Other studies: palatability and toxicity in birds", "assay_type": "in vivo"}, "coccidiosis": {"system": "coccidiosis", "test": "Other studies with A-27106 sodium salt alone and combined with monensin in the diet", "assay_type": "in vivo, birds", "description": "Numerous other studies were carried out with metabolite A-27106 sodium salt, both alone and in combination with monensin."}, "[3]": {"conditions": "medicated birds with high lesion scores"}, "[4]": {"conditions": "0.2 mcg./ml. diluted rumen fluid"}}, "note": "Where a name gives a salt, the structure may show the parent alone.", "data": [{"smiles": "CCC1(C2OC(C3OC(O)(COC4OC(CO)C(O)C(O)C4O)C(C)CC3C)CC2C)CCC(C2(C)CCC3(CC(O)C(C)C(C(C)C(OC)C(C)C(=O)O)O3)O2)O1", "note": "(stereo not drawn) [Metabolite A-27106]", "values": [{"measurement": "toxicity compared with monensin", "setting": "mice; mice", "value": "less toxic than monensin"}, {"measurement": "pKa", "setting": "[1]", "value": 7.2}]}, {"smiles": "CCC1(C2OC(C3OC(O)(COC4OC(CO)C(O)C(O)C4O)C(C)CC3C)CC2C)CCC(C2(C)CCC3(CC(O)C(C)C(C(C)C(OC)C(C)C(=O)O)O3)O2)O1", "note": "(stereo not drawn) [metabolite A-27106 sodium salt]", "values": [{"measurement": "mice died", "setting": "mice; 50 mg./kg.", "value": "one out of six died"}, {"measurement": "mice died", "setting": "mice; 100 mg./kg.", "value": "three out of six died"}, {"measurement": "Avg. Wt. Gain/Bird", "setting": "Eimeria tenella; 100 ppm in the diet", "value": 157, "unit": "Grams"}, {"measurement": "Lesion Scores: number of birds at score 0", "setting": "Eimeria tenella; 100 ppm in the diet", "value": 4}, {"measurement": "Lesion Scores: number of birds at score 1", "setting": "Eimeria tenella; 100 ppm in the diet", "value": 1}, {"measurement": "Lesion Scores: number of birds at score 2", "setting": "Eimeria tenella; 100 ppm in the diet", "value": 0}, {"measurement": "Lesion Scores: number of birds at score 3", "setting": "Eimeria tenella; 100 ppm in the diet", "value": 3}, {"measurement": "Lesion Scores: number of birds at score 4", "setting": "Eimeria tenella; 100 ppm in the diet", "value": 7}, {"measurement": "Avg. Wt. Gain/Bird", "setting": "Eimeria tenella; 150 ppm in the diet", "value": 150, "unit": "Grams"}, {"measurement": "Lesion Scores: number of birds at score 0", "setting": "Eimeria tenella; 150 ppm in the diet", "value": 3}, {"measurement": "Lesion Scores: number of birds at score 1", "setting": "Eimeria tenella; 150 ppm in the diet", "value": 3}, {"measurement": "Lesion Scores: number of birds at score 2", "setting": "Eimeria tenella; 150 ppm in the diet", "value": 1}, {"measurement": "Lesion Scores: number of birds at score 3", "setting": "Eimeria tenella; 150 ppm in the diet", "value": 1}, {"measurement": "Lesion Scores: number of birds at score 4", "setting": "Eimeria tenella; 150 ppm in the diet", "value": 7}, {"measurement": "Avg. Wt. Gain/Bird", "setting": "Eimeria tenella; 200 ppm in the diet", "value": 166, "unit": "Grams"}, {"measurement": "Lesion Scores: number of birds at score 0", "setting": "Eimeria tenella; 200 ppm in the diet", "value": 5}, {"measurement": "Lesion Scores: number of birds at score 1", "setting": "Eimeria tenella; 200 ppm in the diet", "value": 0}, {"measurement": "Lesion Scores: number of birds at score 2", "setting": "Eimeria tenella; 200 ppm in the diet", "value": 0}, {"measurement": "Lesion Scores: number of birds at score 3", "setting": "Eimeria tenella; 200 ppm in the diet", "value": 0}, {"measurement": "Lesion Scores: number of birds at score 4", "setting": "Eimeria tenella; 200 ppm in the diet", "value": 10}, {"measurement": "condition of birds", "setting": "Eimeria tenella; [3]", "value": "appeared to be in good condition"}, {"measurement": "fecal blood", "setting": "Eimeria tenella; [3]", "value": "scanty or absent"}, {"measurement": "Butyrate, ratio of concentration in treated to control flasks", "setting": "rumen fluid; [4]", "value": 0.91}, {"measurement": "Propionate, ratio of concentration in treated to control flasks", "setting": "rumen fluid; [4]", "value": 1.02}, {"measurement": "Total VFA, ratio of concentration in treated to control flasks", "setting": "rumen fluid; [4]", "value": 1.07}, {"measurement": "Butyrate, ratio of concentration in treated to control flasks", "setting": "rumen fluid; 1 mcg./ml. diluted rumen fluid", "value": 0.96}, {"measurement": "Propionate, ratio of concentration in treated to control flasks", "setting": "rumen fluid; 1 mcg./ml. diluted rumen fluid", "value": 1.42}, {"measurement": "Total VFA, ratio of concentration in treated to control flasks", "setting": "rumen fluid; 1 mcg./ml. diluted rumen fluid", "value": 0.98}, {"measurement": "Butyrate, ratio of concentration in treated to control flasks", "setting": "rumen fluid; 5 mcg./ml. diluted rumen fluid", "value": 0.73}, {"measurement": "Propionate, ratio of concentration in treated to control flasks", "setting": "rumen fluid; 5 mcg./ml. diluted rumen fluid", "value": 2.15}, {"measurement": "Total VFA, ratio of concentration in treated to control flasks", "setting": "rumen fluid; 5 mcg./ml. diluted rumen fluid", "value": 1.03}, {"measurement": "solubility", "setting": "[2]; highly polar solvents", "value": "readily soluble"}, {"measurement": "solubility", "setting": "[2]; liquid lower alkanes", "value": "relatively insoluble"}, {"measurement": "solubility", "setting": "[2]; lower aliphatic alcohols", "value": "soluble"}, {"measurement": "solubility", "setting": "[2]; nonpolar solvents", "value": "insoluble"}, {"measurement": "solubility", "setting": "[2]; phenol, diethyl ether and acetone", "value": "partially soluble"}, {"measurement": "solubility", "setting": "[2]; solvents of intermediate polarity", "value": "varies in solubility"}, {"measurement": "toxicity compared with monensin", "setting": "birds", "value": "less toxic than was monensin"}, {"measurement": "weight gains", "setting": "coccidiosis; 0.04 percent versus 0.01 percent in diet", "value": "no greater weight gains at 0.04 percent than at 0.01%"}, {"measurement": "toxicity", "setting": "coccidiosis; higher rate (0.04 percent)", "value": "no evidence of toxicity"}, {"measurement": "caecal lesions", "setting": "coccidiosis; higher rate (0.04 percent) versus 0.01 percent", "value": "fewer caecal lesions"}]}, {"smiles": "CC[C@@]1([C@@H]2O[C@@H]([C@H]3O[C@@](O)(CO)[C@H](C)C[C@@H]3C)C[C@@H]2C)CC[C@H]([C@]2(C)CC[C@]3(C[C@H](O)[C@@H](C)[C@@H]([C@@H](C)[C@@H](OC)[C@H](C)C(=O)O)O3)O2)O1", "note": "[monensin sodium salt, reference compound]", "values": [{"measurement": "mice died", "setting": "mice; 10 mg./kg.", "value": "one out of six died"}, {"measurement": "mice died", "setting": "mice; 20 mg./kg.", "value": "three out of six died"}]}]}
